Experimental data from article doi:10.64898/2026.03.17.711623, “Polypharmacology is an enduring and nearly universal property of kinase inhibitors” (bioRxiv, 2026).

Biological target: T1, YES (Homo sapiens, UniProt P07947)
T1 construct: gene YES1
T1 sequence (P07947 whole entry): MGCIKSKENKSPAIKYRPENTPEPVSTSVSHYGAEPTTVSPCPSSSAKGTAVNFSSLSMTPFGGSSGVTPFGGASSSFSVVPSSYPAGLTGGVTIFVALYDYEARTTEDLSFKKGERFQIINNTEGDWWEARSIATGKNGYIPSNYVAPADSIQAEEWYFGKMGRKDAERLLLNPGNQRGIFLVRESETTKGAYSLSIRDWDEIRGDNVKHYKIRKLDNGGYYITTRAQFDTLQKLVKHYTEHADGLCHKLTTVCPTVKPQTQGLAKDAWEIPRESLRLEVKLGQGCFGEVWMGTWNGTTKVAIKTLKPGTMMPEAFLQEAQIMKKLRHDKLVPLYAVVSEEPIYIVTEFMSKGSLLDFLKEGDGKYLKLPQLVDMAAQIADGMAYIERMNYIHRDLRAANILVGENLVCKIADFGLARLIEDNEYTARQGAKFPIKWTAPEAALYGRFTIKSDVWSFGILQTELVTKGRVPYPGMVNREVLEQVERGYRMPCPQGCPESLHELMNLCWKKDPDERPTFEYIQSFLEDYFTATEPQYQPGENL

Kd: 423 nM
SMILES: Cc1cc(C(=O)Nc2cc(Oc3ccc4nc(NC(=O)C5CC5)cn4n3)ccc2C)n(C)n1 [HMSL12071, TAK-593]
